According to ChEMBL document CHEMBL5356936, “Restoring susceptibility to aminoglycosides: identifying small molecule inhibitors of enzymatic inactivation” (RSC Med Chem, 2023):
pIC50: −log10 of the molar value.

Assays:
[1] = Inhibition of Histone acetyltransferase in human Huh-7.5.1 cells assessed as hepatitis C virus-induced EGF mRNA level measured after 72 hrs; details: Huh-7.5.1, 72 h
[2] = Inhibition of Aminoglycoside N-acetyltransferases (unknown origin)

pIC50 [1] | pIC50 [2] | SMILES
6.41 | – | O=C(CCCN1CCC(O)(c2ccc(Cl)cc2)CC1)c1ccc(F)cc1 [HALOPERIDOL]
– | 5.68 | CC(CCN[C@H](CN[C@H](CO)CN1CCC[C@H]1CN[C@H](CN)c1ccccc1)c1ccccc1)c1ccccc1 (some centres not stated)
